Test results: patent publication EP4717694A1, “PYRAZOLFORMYL PIPERAZINONE COMPOUND, PHARMACEUTICAL COMPOSITION AND USE THEREOF” (Iregene Therapeutics Co., Ltd., priority 2023, dated 2024)

What was measured:
glioma U251 cells = assay: Treatment of glioma cells, qPCR transcriptional analysis (CASP3) and cytotoxicity versus LY2157299; type: cell-based
Procedure: In this example, compound II-1 and the reference compound LY2157299 were used to treat glioma U251 cells. Samples were collected at 12 hours and 72 hours posttreatment. Total RNA was extracted using the Rneasy Mini or Micro Kit (QIAGEN), and […] of RNA was reverse-transcribed into cDNA using the SuperScript III First-Strand Synthesis System (Invitrogen). Quantitative PCR was performed using SYBR Premix Ex Taq (TaKaRa) on a Thermal Cycler Dice Real-Time System (TaKaRa), with beta-Actin serving as an internal control. All data were analyzed using the delta-Ct method. Each experiment was performed in triplicate, and variance analysis was conducted. […] Table 3. Primers for transcriptional analysis of cells treated with compound II-1

BMPR1B kinase = BMPR1B kinase (Homo sapiens, UniProt O00238); assay: Kinase activity screening (330 kinases, HTRF or ADP-Glo); type: biochemical; conditions: screen of 330 kinases; II-1 2.5 mM, 25 nL in DMSO added to 2.5 µL kinase; Figure 1A
Chain of BMPR1B kinase (O00238 14-502): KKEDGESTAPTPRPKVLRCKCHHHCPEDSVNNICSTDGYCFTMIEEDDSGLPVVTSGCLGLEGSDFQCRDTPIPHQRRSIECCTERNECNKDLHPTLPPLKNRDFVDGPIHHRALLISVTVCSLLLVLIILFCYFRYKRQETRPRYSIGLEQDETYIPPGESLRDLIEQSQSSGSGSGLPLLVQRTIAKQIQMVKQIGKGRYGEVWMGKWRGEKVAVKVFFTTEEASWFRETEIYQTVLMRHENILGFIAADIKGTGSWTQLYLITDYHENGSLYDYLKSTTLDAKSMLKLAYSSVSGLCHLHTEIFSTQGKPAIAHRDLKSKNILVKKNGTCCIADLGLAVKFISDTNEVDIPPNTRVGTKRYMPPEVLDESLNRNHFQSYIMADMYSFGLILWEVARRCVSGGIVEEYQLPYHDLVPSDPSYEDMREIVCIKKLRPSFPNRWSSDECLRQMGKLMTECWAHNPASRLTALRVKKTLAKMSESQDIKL
Procedure: A total of 330 kinase candidates (15-50 nM, 2.5 µL) were mixed with compound II-1 (2.5 mM, 25 nL, prepared in DMSO) and incubated at 25 °C for 10 minutes. Then, a mixture of kinase peptide substrate (0.2 mg/mL; supplier: GenScript) and ATP (10-60 µM; supplier: Promega; product number: V915B) was added (total 2.5 µL, prepared in assay buffer), and the reaction was carried out at 25 °C for 60-120 minutes. Finally, the reaction products were quantified using HTRF1 or ADP-Glo2 methods. During the kinase activity assay, the consumption of each substrate was kept below 10%, and each kinase assay was performed in duplicate.

HEK293 = assay: CCK-8 cell viability assay; type: cell-based
Procedure: (§1) Tumor cells OVCAR3 (ovarian cancer), HeLa ([…]), U251 (glioma), H9 cells, and non-tumor HEK293 cells were cultured in DMEM/F12 medium supplemented with 10% FBS and 1% P/S. When cells reached 70% confluency, they were digested with 0.25% Trypsin at 37°C for 2-3 minutes, and digestion was stopped with DMEM/F12 medium. Cell suspensions were collected in 15 mL centrifuge tubes, centrifuged at 1000 rpm for 5 minutes, the supernatant was discarded, and cells were resuspended in DMEM/F12 medium with 10% FBS and 1% P/S. Cells were counted using a hemocytometer, and based on the counts, they were resuspended to the desired concentration. Tumor cells were seeded in 96-well plates at 1×10^4 cells per well, 100 µL per well. From day 1 to day 7 after seeding, cells were treated with compound II-1 at 0 µM, 10 µM, 30 µM, and 50 µM (the pyrazolecarbonyl piperazinone compounds were diluted to 10 µM, 30 µM, and 50 µM with DMEM + 10% FBS). Each concentration was tested in triplicate wells.
(§2) Cell viability on days 1, 3, 5, and 7 was determined using the CCK-8 cell proliferation/cytotoxicity assay kit (Vazyme, A311-02) by measuring absorbance at OD450 nm, with wells containing only medium and CCK-8 solution as blank controls. Each concentration was measured in triplicate.
(§3) Calculation of cell survival rate: For the same cell type at the same time point, the absorbance of cells not treated with compound II-1 was set as 100% baseline. For cells treated with different concentrations, the absorbance was compared with the control group (CK) to calculate the relative proportion. For example, the survival rate of H9 cells on day 4 treated with 30 µM of the small molecule compound was calculated as follows: [OD(D4)30μMiPS]/[OD(D4)0μMH9] × 100% [formula] Table 2. Cell survival rates of various cell types after treatment with different concentrations of compound II-1 measured by CCK-8 assay

U251 = assay: CCK-8 cell viability assay; type: cell-based
Procedure: as §1, §2, §3

H9 = assay: CCK-8 cell viability assay; type: cell-based
Procedure: as §1, §2, §3

OVCAR3 = assay: CCK-8 cell viability assay; type: cell-based
Procedure: as §1, §2, §3

**Q.** Which “cells remaining in the wells compared to LY2157299” value (glioma U251 cells; after 72 hours of treatment, Figure 3) does the source give for O=C1CN(C(=O)c2n[nH]c3c2CCC3)[C@H]2CCCC[C@@H]2N1 [II-1, (4aS,8aS)-4-(1,4,5,6-tetrahydrocyclopenta[c]pyrazole-3-carbonyl)octahydroquinoxalin-2(1H)-one] here?
**A.** fewer cells remained

**Q.** And the “apoptosis compared to LY2157299” value (glioma U251 cells; same concentration as LY2157299, Figure 3)?
**A.** higher apoptosis

**Q.** What about the “inhibitory activity against BMPR1B kinase” value (BMPR1B kinase) of the same molecule?
**A.** significant inhibitory activity

**Q.** What about the Cell survival rate (HEK293; HEK293, II-1 10 µM, Day 1 Treatment) of the same molecule?
**A.** 96.09%

**Q.** What about the Cell survival rate (HEK293; HEK293, II-1 10 µM, Day 3 Treatment) of the same molecule?
**A.** 96.67%

**Q.** What about the Cell survival rate (HEK293; HEK293, II-1 10 µM, Day 5 Treatment) of the same molecule?
**A.** 98.80%

**Q.** What about the Cell survival rate (HEK293; HEK293, II-1 10 µM, Day 7 Treatment) of the same molecule?
**A.** 99.24%

**Q.** And the Cell survival rate (HEK293; HEK293, II-1 30 µM, Day 1 Treatment)?
**A.** 93.69%

**Q.** And the Cell survival rate (HEK293; HEK293, II-1 30 µM, Day 3 Treatment)?
**A.** 94.14%

**Q.** And the Cell survival rate (HEK293; HEK293, II-1 30 µM, Day 5 Treatment)?
**A.** 94.39%

**Q.** What about the Cell survival rate (HEK293; HEK293, II-1 30 µM, Day 7 Treatment) of the same molecule?
**A.** 94.97%

**Q.** What about the Cell survival rate (HEK293; HEK293, II-1 50 µM, Day 1 Treatment) of the same molecule?
**A.** 80.80%

**Q.** And the Cell survival rate (HEK293; HEK293, II-1 50 µM, Day 3 Treatment)?
**A.** 90.72%

**Q.** What about the Cell survival rate (HEK293; HEK293, II-1 50 µM, Day 5 Treatment) of the same molecule?
**A.** 92.46%

**Q.** What about the Cell survival rate (HEK293; HEK293, II-1 50 µM, Day 7 Treatment) of the same molecule?
**A.** 93.56%

**Q.** What about the “cell viability, course with time and concentration” value (“cell viability, course” below) (HEK293; non-tumor HEK293, II-1 10-50 µM, days 1-7) of the same molecule?
**A.** did not show significant changes

**Q.** What about the Cell survival rate (U251; U251, II-1 10 µM, Day 1 Treatment) of the same molecule?
**A.** 100.75%

**Q.** What about the Cell survival rate (U251; U251, II-1 10 µM, Day 3 Treatment) of the same molecule?
**A.** 98.96%

**Q.** And the Cell survival rate (U251; U251, II-1 10 µM, Day 5 Treatment)?
**A.** 95.19%

**Q.** And the Cell survival rate (U251; U251, II-1 10 µM, Day 7 Treatment)?
**A.** 94.74%

**Q.** What about the Cell survival rate (U251; U251, II-1 30 µM, Day 1 Treatment) of the same molecule?
**A.** 99.49%

**Q.** What about the Cell survival rate (U251; U251, II-1 30 µM, Day 3 Treatment) of the same molecule?
**A.** 87.01%

**Q.** What about the Cell survival rate (U251; U251, II-1 30 µM, Day 5 Treatment) of the same molecule?
**A.** 79.39%

**Q.** And the Cell survival rate (U251; U251, II-1 30 µM, Day 7 Treatment)?
**A.** 74.00%

**Q.** And the Cell survival rate (U251; U251, II-1 50 µM, Day 1 Treatment)?
**A.** 98.61%

**Q.** What about the Cell survival rate (U251; U251, II-1 50 µM, Day 3 Treatment) of the same molecule?
**A.** 85.27%

**Q.** What about the Cell survival rate (U251; U251, II-1 50 µM, Day 5 Treatment) of the same molecule?
**A.** 70.43%

**Q.** And the Cell survival rate (U251; U251, II-1 50 µM, Day 7 Treatment)?
**A.** 63.89%

**Q.** What about the “cell viability, course” value (U251; U251, II-1 10-50 µM, days 1-7) of the same molecule?
**A.** gradual decrease in cell viability over time

**Q.** What about the Cell survival rate (H9; H9, II-1 10 µM, Day 1 Treatment) of the same molecule?
**A.** 90.37%

**Q.** And the Cell survival rate (H9; H9, II-1 10 µM, Day 3 Treatment)?
**A.** 92.91%

**Q.** And the Cell survival rate (H9; H9, II-1 10 µM, Day 5 Treatment)?
**A.** 84.84%

**Q.** What about the Cell survival rate (H9; H9, II-1 10 µM, Day 7 Treatment) of the same molecule?
**A.** 83.47%

**Q.** What about the Cell survival rate (H9; H9, II-1 30 µM, Day 1 Treatment) of the same molecule?
**A.** 84.96%

**Q.** What about the Cell survival rate (H9; H9, II-1 30 µM, Day 3 Treatment) of the same molecule?
**A.** 86.01%

**Q.** And the Cell survival rate (H9; H9, II-1 30 µM, Day 5 Treatment)?
**A.** 80.25%

**Q.** And the Cell survival rate (H9; H9, II-1 30 µM, Day 7 Treatment)?
**A.** 78.71%

**Q.** What about the Cell survival rate (H9; H9, II-1 50 µM, Day 1 Treatment) of the same molecule?
**A.** 76.96%

**Q.** And the Cell survival rate (H9; H9, II-1 50 µM, Day 3 Treatment)?
**A.** 73.87%

**Q.** What about the Cell survival rate (H9; H9, II-1 50 µM, Day 5 Treatment) of the same molecule?
**A.** 69.10%

**Q.** What about the Cell survival rate (H9; H9, II-1 50 µM, Day 7 Treatment) of the same molecule?
**A.** 65.98%

**Q.** And the “cell viability, course” value (H9; H9, II-1 10-50 µM, days 1-7)?
**A.** gradual decline in viability

**Q.** What about the Cell survival rate (OVCAR3; OVCAR3, II-1 10 µM, Day 1 Treatment) of the same molecule?
**A.** 95.05%

**Q.** What about the Cell survival rate (OVCAR3; OVCAR3, II-1 10 µM, Day 3 Treatment) of the same molecule?
**A.** 98.06%

**Q.** And the Cell survival rate (OVCAR3; OVCAR3, II-1 10 µM, Day 5 Treatment)?
**A.** 96.19%

**Q.** What about the Cell survival rate (OVCAR3; OVCAR3, II-1 10 µM, Day 7 Treatment) of the same molecule?
**A.** 97.99%

**Q.** And the Cell survival rate (OVCAR3; OVCAR3, II-1 30 µM, Day 1 Treatment)?
**A.** 89.67%

**Q.** What about the Cell survival rate (OVCAR3; OVCAR3, II-1 30 µM, Day 3 Treatment) of the same molecule?
**A.** 94.18%

**Q.** What about the Cell survival rate (OVCAR3; OVCAR3, II-1 30 µM, Day 5 Treatment) of the same molecule?
**A.** 92.35%

**Q.** What about the Cell survival rate (OVCAR3; OVCAR3, II-1 30 µM, Day 7 Treatment) of the same molecule?
**A.** 90.98%

**Q.** And the Cell survival rate (OVCAR3; OVCAR3, II-1 50 µM, Day 1 Treatment)?
**A.** 88.56%

**Q.** And the Cell survival rate (OVCAR3; OVCAR3, II-1 50 µM, Day 3 Treatment)?
**A.** 90.37%

**Q.** What about the Cell survival rate (OVCAR3; OVCAR3, II-1 50 µM, Day 5 Treatment) of the same molecule?
**A.** 85.37%

**Q.** What about the Cell survival rate (OVCAR3; OVCAR3, II-1 50 µM, Day 7 Treatment) of the same molecule?
**A.** 80.83%

**Q.** And the “cell viability, course” value (OVCAR3; OVCAR3, II-1 10-50 µM, days 1-7)?
**A.** gradual decrease in cell viability over time
